According to patent publication US9877980B2, “Method and composition for treatment or prevention of type 2 diabetes and hyperlipidemia” (Chun-Ching Shih, priority 2016, dated 2018):
Marks after values point to notes of the source that are not given here.

Legend:
Format in all cases: in vivo
[1] = test system: DGAT2; experiment: Semi-quantitative RT-PCR of liver mRNA: DGAT2; conditions: HFD mice, 4 weeks, vs HF group
Description: (§1) The following experiment was performed and approved by the guidelines of the Institutional Animal Care and Use Committee of Central Taiwan University of Science and Technology. The 4-week old male C57BL/6J mice (total amount n=63) were purchased from the National Laboratory Animal Breeding and Research Center (Taipei, Taiwan). After acclimatization for one week, all of the mice were divided randomly into the control (CON) group and the high-fat diet (HFD) group. […] After HFD exposure for 8 weeks, the HFD group was further randomly subdivided into 6 groups (n=9 per group) to receive different treatments by oral gavage once daily for four weeks and on HFD. […] The HF+B1, HF+B2, and […] are collectively termed BB-treated HFD groups in the following examples. The CON mice were administered vehicle. After dosing for 4 weeks, the mice were given no food at night and sacrificed after 12 h of fasting on the next day. All of the individual tissues were collected and weighed, and portions were instantly frozen using liquid nitrogen and kept at −80° C. for subsequent target gene analysis. Blood samples (0.8 mL) were collected for analysis of blood parameters.
(§2) Total RNA from liver tissue of mice was isolated with a Trizol Reagent (Molecular Research Center, Inc., Cincinnati, Ohio, USA) according to the manufacturer's instructions. The integrity of the extracted total RNA was examined by 2% agarose gel electrophoresis, and the RNA concentration was determined by the ultraviolet (UV) light absorbency at 260 nm and 280 nm (Spectrophotometer U-2800A, Hitachi). The quality of the RNA was confirmed by ethidium bromide staining of 18S and 28S ribosomal RNA after electrophoresis on 2% agarose gel containing 6% formaldehyde.
(§3) Levels of mRNA of genes of interest were quantified by semi-quantitative reverse transcription polymerase chain reaction (RT-PCR). […] PCR products were analyzed by 2% agarose gels and stained with ethidium bromide.

[2] = test system: C57BL/6J mice on high-fat diet (HFD); experiment: Blood parameters (glucose, insulin, TG, FFA, TC, leptin, adiponectin) in HFD mice; conditions: for Blood parameters Adiponectin / Blood parameters FFA / Blood parameters Leptin / Blood parameters TC / blood level of glucose / blood level of insulin: 4 weeks
Description: as §1
A portion of the blood samples obtained from the retro-orbital sinus of fasted mice were immediately used to measure blood glucose levels using Sidekick glucose analyzer (YSI 1500, YSI Incorporated, Yellow Springs, USA) according to the glucose oxidase method. Heparin (30 units/mL, Sigma) was added into other portions of the blood samples. […] Concentrations of plasma triglycerides (TG), total cholesterol (TC), and free fatty acids (FFA) were determined using commercial assay kits according to the manufacturer's instructions (Triglycerides-E test, Cholesterol-E test, and FFA-C test, Wako Pure Chemical, Osaka, Japan). Plasma insulin, leptin, and adiponectin levels were assessed using commercial assay kits according to the manufacturer's instructions (mouse insulin ELISA kit, Mercodia, Uppsala, Sweden; mouse leptin ELISA kit, Morinaga, Yokohama, Japan; Mouse Adiponectin ELISA kit, Crystal Chem International, Downers Grove, Ill., USA).

[3] = test system: PEPCK; experiment: Semi-quantitative RT-PCR of liver mRNA: PEPCK; conditions: HFD mice, 4 weeks, vs HF group
Description: as §1, §2, §3

[4] = 10 mg/kg/day oral gavage, vs HF group
[5] = 20 mg/kg/day oral gavage, vs HF group
[6] = 40 mg/kg/day oral gavage, vs HF group

Question: OCC1O[C@@H](O[C@@H]2Cc3c(O)cc(O)cc3O[C@@H]2c2ccc(O)c(O)c2)C(O)C(O)[C@@H]1O (single isomer, unassigned; (-)) [compound of formula I, (−)-epicatechin-3-O-β-D-allopyranoside] was tested. Which “liver mRNA level of DGAT2” value ([1]; 10 mg/kg/day oral gavage) did it give?
Answer: significantly reduced

Question: What about the “liver mRNA level of DGAT2” value ([1]; 20 mg/kg/day oral gavage) of the same compound?
Answer: significantly reduced

Question: And the “liver mRNA level of DGAT2” value ([1]; 40 mg/kg/day oral gavage)?
Answer: significantly reduced

Question: And the “Blood parameters Adiponectin” value ([2]; 10 mg/kg/day oral gavage)?
Answer: 2.895 ± 0.010^f μg/mL

Question: What about the “Blood parameters FFA” value ([2]; 10 mg/kg/day oral gavage) of the same compound?
Answer: 1.11 ± 0.13^d mEq/L

Question: And the “Blood parameters Leptin” value ([2]; 10 mg/kg/day oral gavage)?
Answer: 1.662 ± 0.009^f ng/mL

Question: What about the “Blood parameters TC” value ([2]; 10 mg/kg/day oral gavage) of the same compound?
Answer: 153.5 ± 7.7 mg/dL

Question: And the “blood level of glucose” value [2, 4]?
Answer: markedly lowered

Question: And the “blood level of insulin” value [2, 4]?
Answer: markedly lowered

Question: And the “Blood parameters Adiponectin” value ([2]; 20 mg/kg/day oral gavage)?
Answer: 3.277 ± 0.052^f μg/mL

Question: And the “Blood parameters FFA” value ([2]; 20 mg/kg/day oral gavage)?
Answer: 0.95 ± 0.04^f mEq/L

Question: And the “Blood parameters Leptin” value ([2]; 20 mg/kg/day oral gavage)?
Answer: 1.372 ± 0.029^f ng/mL

Question: What about the “Blood parameters TC” value ([2]; 20 mg/kg/day oral gavage) of the same compound?
Answer: 144.1 ± 4.0 mg/dL

Question: What about the “blood level of glucose” value [2, 5] of the same compound?
Answer: markedly lowered

Question: And the “blood level of insulin” value [2, 5]?
Answer: markedly lowered

Question: What about the “Blood parameters Adiponectin” value ([2]; 40 mg/kg/day oral gavage) of the same compound?
Answer: 3.628 ± 0.034^f μg/mL

Question: And the “Blood parameters FFA” value ([2]; 40 mg/kg/day oral gavage)?
Answer: 0.86 ± 0.09^f mEq/L

Question: What about the “Blood parameters Leptin” value ([2]; 40 mg/kg/day oral gavage) of the same compound?
Answer: 1.321 ± 0.008^f ng/mL

Question: And the “Blood parameters TC” value ([2]; 40 mg/kg/day oral gavage)?
Answer: 142.9 ± 6.6 mg/dL

Question: And the “blood level of glucose” value [2, 6]?
Answer: markedly lowered

Question: And the “blood level of insulin” value [2, 6]?
Answer: markedly lowered

Question: What about the “circulating TG levels” value ([2]; oral gavage 4 weeks (formula I 10, 20, 40; Rosi 10; Feno 250 mg/kg/day), vs HF group) of the same compound?
Answer: decreased

Question: And the “liver mRNA level of PEPCK” value ([3]; 10 mg/kg/day oral gavage)?
Answer: significantly reduced

Question: What about the “liver mRNA level of PEPCK” value ([3]; 20 mg/kg/day oral gavage) of the same compound?
Answer: significantly reduced

Question: What about the “liver mRNA level of PEPCK” value ([3]; 40 mg/kg/day oral gavage) of the same compound?
Answer: significantly reduced
